{"source": "paper PMC11141866", "about": "“Pyrimidine depletion enhances targeted and immune therapy combinations in acute myeloid leukemia” (JCI Insight, 2024)", "key": {"Kasumi": {"test_system": "Kasumi", "test": "MTS proliferation assay, Kasumi", "format": "cell-based", "conditions": "Homo sapiens; Kasumi, 96-hour treatment; read-out: IC50 (MTS proliferation)", "experimental": "A total of 10,000–20,000 cells from different AML lines or 50,000–75,000 cells of primary AML blasts were treated in a 96-well plate for 72 hours or 96 hours at 37°C, 5% CO2. CellTiter 96 Aqueous MTS reagent (Promega) was added to cells followed by a 3-hour incubation at 37°C, 5% CO2. The absorbance was measured at 490 nm using DTX 880 plate reader, and the IC50 was calculated using GraphPad Prism."}, "[1]": {"test_system": "HL-60 disseminated CDX model", "test": "HL-60 CDX synergy with decitabine", "format": "in vivo, NCG mice", "conditions": "Decitabine 0.4 mpk IP (4on/10off), HOSU53 10 mpk p.o. qd, or both; flag 0 = censored at day 82", "experimental": "Female 8- to 12-week-old female NCG mice were engrafted with 1 × 10^7 cells via tail vein i.v. injection. At 14 days after engraftment (day 1 of treatment), mice (n = 10/arm) were randomized to receive p.o. qd and i.p. vehicle (p.o. qd 40% HPβCD and 4 on/10 off i.p. PBS), 10 mg/kg HOSU-53, i.p. 0.4 mg/kg decitabine on a 4-day on/10-day off cycle, or their combination till moribundity or end of study day 82."}, "CYP 2B6": {"biological_target": "CYP 2B6 (Homo sapiens, UniProt P20813)", "sequence (P20813 whole entry)": "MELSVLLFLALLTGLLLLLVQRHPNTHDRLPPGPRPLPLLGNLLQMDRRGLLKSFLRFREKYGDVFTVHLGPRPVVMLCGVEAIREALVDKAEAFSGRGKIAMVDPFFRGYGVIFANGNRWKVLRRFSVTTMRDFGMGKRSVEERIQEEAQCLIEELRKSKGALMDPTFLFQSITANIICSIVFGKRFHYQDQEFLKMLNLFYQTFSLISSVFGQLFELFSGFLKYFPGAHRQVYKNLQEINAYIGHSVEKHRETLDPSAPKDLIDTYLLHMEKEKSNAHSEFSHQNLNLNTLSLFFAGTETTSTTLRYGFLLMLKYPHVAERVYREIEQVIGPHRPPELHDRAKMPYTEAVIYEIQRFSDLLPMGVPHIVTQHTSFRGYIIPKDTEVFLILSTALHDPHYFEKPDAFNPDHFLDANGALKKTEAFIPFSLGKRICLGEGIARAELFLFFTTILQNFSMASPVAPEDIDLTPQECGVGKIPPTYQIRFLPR", "test": "CYP inhibition 2B6", "format": "in vitro ADME", "text": "(§1) Supplement jciinsight-9-173646-s083.xlsx, sheet \"Supplemental Table S.2.\" | column: HOSU-53"}, "[2]": {"test": "HOSU-53 plasma exposure in MOLM-13 tumor-bearing mice", "format": "in vivo, NCG mice", "conditions": "per mouse; for AUC: NCG, mouse, plasma, po, read-out: HOSU-53 AUCall", "experimental": "Male 8- to 12-week-old NCG mice were engrafted with 1 × 10^5 cells via tail vein i.v. injection. […] Figure 3B and Figure 4, A and B, share the same vehicle group. page 6: Plasma samples were obtained following appropriate dosing administration and saved in the -80°C freezer till the time of analysis. Analyses by LC-MS/MS followed sample extraction by protein precipitation and separation by Ultra Performance Liquid Chromatography (UPLC, Waters Corporation, MA, USA) using a C18 column, 1.7um, 2.1x50mm, Mobile Phase A: 5:95:0.1 (v:v:v) Acetonitrile:Water:Formic Acid, Mobile Phase B: 50:50:0.1 (v:v:v) Methanol:Acetonitrile:Formic Acid. MS/MS analyses were performed on an API-6500 (Absciex MA, USA) in positive mode using an electrospray source at 550°C. The internal standard was d4-AEA monitored at 352.2 and 66.0 m/z transitions and the target analyte, HOSU-53, was monitored at 416.5 and 331.1 m/z transitions. The assay was qualified between 10-5,000 ng/ml HOSU53 to be within ±20% for QCs above the LLOQ in this range and ±25% at the LLOQ. DHO concentration quantification in mouse plasma samples. Plasma samples were obtained following appropriate dosing administration and saved in the -80°C freezer till the time of analysis. Analyses by LC-MS/MS followed sample extraction by protein precipitation and separation by Ultra Performance Liquid Chromatography (UPLC, Waters Corporation, MA, USA) using a Phenomenex Aqua C18 100x4.6mm, 3uM, […], Mobile Phase A: 100:0.1 (v:v) Water:Formic Acid, Mobile Phase B: 100:0.1 (v:v) Methanol:Formic Acid. MS/MS analyses were performed on an API-4000 (Absciex MA, USA) in negative mode using an electrospray source at 550°C. The internal standard was labeled 13C14_L-Dihydroorotic Acid monitored at 161.3 and 117.1 m/z transitions and the target analyte, L-Dihydroorotic Acid (DHO), was monitored at 157.0 and 70.0 m/z transitions. The assay was qualified between 10.0-30,000 ng/ml DHO to be within ±20% for QCs above the LLOQ in this range and ±25% at the LLOQ."}, "[3]": {"test_system": "MOLM-13 disseminated CDX AML model", "test": "MOLM-13 CDX efficacy study correlated with PK/PD (survival)", "format": "in vivo", "experimental": "Male 8- to 12-week-old NCG mice were engrafted with 1 × 10^5 cells via tail vein i.v. injection. Four days after engraftment (day 1 of treatment), mice (n = 9–10/arm) were randomized to receive p.o. qd vehicle (40% HPβCD) or p.o. qd HOSU-53 at 4, 10, and 20 mg/kg or 30 mg/kg biwk till moribundity or end of study, day 73. An additional study was done for PK/PD correlation with the survival study where 9 mice per group were randomized to receive p.o. qd vehicle (40% HPβCD) or p.o. qd HOSU-53 at 4, 10, and 20 mg/kg or 30 mg/kg biwk till day 14. Mice were bled for plasma collection to analyze HOSU-53 and DHO concentrations 1 day after the first dose and on day 14 for cumulative plasma concentration analysis. Figure 3B and Figure 4, A and B, share the same vehicle group."}, "Rat DHODH": {"biological_target": "Rat DHODH (Rattus norvegicus, UniProt Q63707)", "sequence (Q63707 whole entry)": "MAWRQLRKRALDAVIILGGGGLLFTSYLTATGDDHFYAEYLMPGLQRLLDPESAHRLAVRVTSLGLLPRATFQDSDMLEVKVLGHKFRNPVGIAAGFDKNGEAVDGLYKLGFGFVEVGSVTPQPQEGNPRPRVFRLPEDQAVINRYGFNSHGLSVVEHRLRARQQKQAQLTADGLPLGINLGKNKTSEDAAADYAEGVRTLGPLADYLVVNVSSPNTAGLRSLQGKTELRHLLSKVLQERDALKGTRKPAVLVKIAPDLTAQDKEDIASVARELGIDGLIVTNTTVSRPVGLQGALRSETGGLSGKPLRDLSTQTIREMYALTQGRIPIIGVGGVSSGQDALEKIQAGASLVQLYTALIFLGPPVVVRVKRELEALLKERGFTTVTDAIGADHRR", "test": "Cell-free multi-species DHODH enzyme inhibition assay, rat", "format": "biochemical", "conditions": "n=1"}, "CYP 2C8": {"biological_target": "CYP 2C8 (Homo sapiens, UniProt P10632)", "sequence (P10632 whole entry)": "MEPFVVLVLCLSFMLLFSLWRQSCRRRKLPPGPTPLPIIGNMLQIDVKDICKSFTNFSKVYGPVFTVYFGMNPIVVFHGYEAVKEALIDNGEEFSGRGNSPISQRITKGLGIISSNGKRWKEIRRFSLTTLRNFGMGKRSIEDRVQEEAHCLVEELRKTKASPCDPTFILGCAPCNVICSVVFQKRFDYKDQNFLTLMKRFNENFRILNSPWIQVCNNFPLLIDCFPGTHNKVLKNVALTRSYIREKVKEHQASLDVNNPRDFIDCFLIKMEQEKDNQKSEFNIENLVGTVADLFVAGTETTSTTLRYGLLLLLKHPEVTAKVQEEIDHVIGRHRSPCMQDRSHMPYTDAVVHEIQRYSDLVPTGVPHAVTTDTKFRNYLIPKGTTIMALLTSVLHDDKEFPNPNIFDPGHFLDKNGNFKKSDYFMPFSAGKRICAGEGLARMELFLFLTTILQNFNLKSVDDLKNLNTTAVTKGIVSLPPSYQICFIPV", "test": "CYP inhibition 2C8", "format": "in vitro ADME", "text": "as §1"}, "Protein binding, AAG": {"test": "Protein binding, AAG", "format": "in vitro ADME", "conditions": "0.07% AAG", "text": "as §1"}}, "note": "pIC50: −log10 of the molar value. Several values for one entry are separate records, joined by “and”; a condition that tells them apart may be missing. Equal values may be shown once. Read-outs that look alike come from different tables or passages of the source."}
{"compound": "CCCCOc1cccc(-c2ccc(-c3cc(C(=O)O)c4cc(F)ccc4n3)cc2)c1", "note": "[HOSU-53]", "values": [{"measurement": "pIC50", "setting": "Kasumi", "value": 7.35}, {"measurement": "Survival, day of study at event (per animal)", "setting": "[1]", "value": "57 days and 52 days and 56 days and 58 days and 55 days"}, {"measurement": "pIC50", "setting": "CYP 2B6", "value": 4.95}, {"measurement": "HOSU-53 AUCall", "setting": "[2]; Day 1, 4 mpk PO, male mice, 4 mg/kg", "value": "915.984 µM·h and 1069.99 µM·h"}, {"measurement": "HOSU-53 AUCall", "setting": "[2]; Day 1, 10 mpk PO, male mice, 10 mg/kg", "value": "1989.31 µM·h and 1940.99 µM·h"}, {"measurement": "HOSU-53 AUCall", "setting": "[2]; Day 1, 20 mpk PO, male mice, 20 mg/kg", "value": "3244.97 µM·h and 3430.6 µM·h"}, {"measurement": "HOSU-53 AUCall", "setting": "[2]; Day 1, 30 mpk PO, male mice, 30 mg/kg", "value": "5214.04 µM·h and 4142.06 µM·h"}, {"measurement": "HOSU-53 AUCall", "setting": "[2]; Day 14, 4 mpk PO, male mice, 4 mg/kg", "value": "2230.22 µM·h and 2019.88 µM·h"}, {"measurement": "HOSU-53 AUCall", "setting": "[2]; Day 14, 10 mpk PO, male mice, 10 mg/kg", "value": "3666.3 µM·h and 3989.64 µM·h"}, {"measurement": "HOSU-53 AUCall", "setting": "[2]; Day 14, 20 mpk PO, male mice, 20 mg/kg", "value": "6180.8 µM·h and 5557.2 µM·h"}, {"measurement": "HOSU-53 AUCall", "setting": "[2]; Day 14, 30 mpk PO, male mice, 30 mg/kg", "value": "7551.75 µM·h and 6154.9 µM·h"}, {"measurement": "AUC", "setting": "[2]; female, 10 mg/kg, Day 1, 10 mpk PO, female mice", "value": 2830, "unit": "µM·h"}, {"measurement": "AUC", "setting": "[2]; female, 10 mg/kg, Day 14, 10 mpk PO, female mice", "value": 3980, "unit": "µM·h"}, {"measurement": "AUC", "setting": "[2]; male, 4 mg/kg, Day 1, 4 mpk PO, male mice", "value": 780, "unit": "µM·h"}, {"measurement": "AUC", "setting": "[2]; male, 4 mg/kg, Day 14, 4 mpk PO, male mice", "value": 1930, "unit": "µM·h"}, {"measurement": "AUC", "setting": "[2]; male, 10 mg/kg, Day 1, 10 mpk PO, male mice", "value": 1890, "unit": "µM·h"}, {"measurement": "AUC", "setting": "[2]; male, 10 mg/kg, Day 14, 10 mpk PO, male mice", "value": 3860, "unit": "µM·h"}, {"measurement": "AUC", "setting": "[2]; male, 20 mg/kg, Day 1, 20 mpk PO, male mice", "value": 3670, "unit": "µM·h"}, {"measurement": "AUC", "setting": "[2]; male, 20 mg/kg, Day 14, 20 mpk PO, male mice", "value": 5090, "unit": "µM·h"}, {"measurement": "AUC", "setting": "[2]; male, 30 mg/kg, Day 1, 30 mpk PO, male mice", "value": 4470, "unit": "µM·h"}, {"measurement": "AUC", "setting": "[2]; male, 30 mg/kg, Day 14, 30 mpk PO, male mice", "value": 6660, "unit": "µM·h"}, {"measurement": "median survival", "setting": "[3]; 10 mg/kg daily p.o.", "value": 55, "unit": "days"}, {"measurement": "tolerability", "setting": "[3]; 20 mg/kg daily p.o.", "value": "intolerable in approximately half the mice"}, {"measurement": "median survival", "setting": "[3]; 30 mg/kg twice weekly p.o.", "value": 48, "unit": "days"}, {"measurement": "tolerability", "setting": "[3]; 30 mg/kg twice weekly p.o.", "value": "well tolerated"}, {"measurement": "Survival, day of study at event (per animal)", "setting": "[3]; 4 mpk poqd", "value": "44 days and 46 days and 43 days and 45 days and 36 days"}, {"measurement": "Survival, day of study at event (per animal)", "setting": "[3]; 10mpk poqd", "value": "55 days and 52 days and 47 days and 60 days and 59 days and 49 days and 63 days and 58 days"}, {"measurement": "Survival, day of study at event (per animal)", "setting": "[3]; 20mpk poqd, flag 0 = censored", "value": "≥ 73 days and 69 days and 46 days and 41 days and 40 days and 71 days and 11 days and 31 days"}, {"measurement": "Survival, day of study at event (per animal)", "setting": "[3]; 30mpk biwk", "value": "50 days and 43 days and 42 days and 48 days and 46 days and 52 days and 44 days and 49 days"}, {"measurement": "pIC50", "setting": "Rat DHODH", "value": 8.12}, {"measurement": "pIC50", "setting": "CYP 2C8", "value": 5.74}, {"measurement": "fraction unbound", "setting": "Protein binding, AAG", "value": 0.015}]}
